Source: PubChem BioAssay (NCI)
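Assay format: 96-well plates, 48-hour exposure. TGI is the concentration that stops growth completely.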

system: NCI-H460 lung; assay: growth of human tumour cells (NCI), 48 h

C[C@]12CC[C@H]3[C@@H](CCC4=CC(=O)CC[C@@H]43)[C@@H]1CC[C@]2(O)C(N)=O and C1C2CC3CC1CC(c1nn4c(C56CC7CC(CC(C7)C5)C6)nnc4s1)(C2)C3 cannot be ordered by TGI: > 100 µM for the first, > 100 µM for the second.

First: C/C(Cl)=N/OC(=O)Nc1ccc(F)c([N+](=O)[O-])c1
Second: O=c1[nH]c2cccc([N+](=O)[O-])c2c(=O)n1-c1ccc(Cl)cc1
The TGI of the first is higher: > 100 µM for the first, 25.8 µM for the second.

O=c1[nH]c(=O)n(C/C=C/CO)nc1Br and Cc1nc(N)c(N2CCN(S(N)(=O)=O)CC2)c(=O)[nH]1 cannot be ordered by TGI: > 100 µM for the first, > 100 µM for the second.

First: O=C1CC(Br)c2c(Br)sc(Br)c21 (configuration not stated)
Second: CC(C)OC(=O)c1ccc(NCC2=CC(=O)C=CC2=O)cc1
The TGI of the first is lower: 31.4 µM for the first, > 100 µM for the second.

CC[C@]12C=CCN3CC[C@@]4(c5cc(Br)c(OC)c([N+](=O)[O-])c5N(C)[C@H]4[C@@](O)(C(=O)OC)[C@@H]1OC(C)=O)[C@@H]32 and COC(=O)C1C2OC(C)(C)OC2CN1S(=O)(=O)c1ccc(C)cc1 (configuration not stated) cannot be ordered by TGI: > 100 µM for the first, > 100 µM for the second.

COc1ccc(CNc2ccn(C3OC(CO)C(O)C3O)c(=O)n2)cc1 (configuration not stated) and CC(C)C[C@H]1[C@@H](OCc2ccccc2)COS(=O)(=O)N1[C@H](C)c1ccccc1 cannot be ordered by TGI: > 100 µM for the first, > 100 µM for the second.

Compared with O=C1CSC(c2ccccc2)N1c1nc2cc3sc(N4C(=O)CSC4c4ccccc4)nc3cc2s1 (configuration not stated), CCSc1nnc(Sc2c3ccccc3nc3ccccc23)s1 is lower in TGI: > 100 µM for the first, 42.5 µM for the second.

O=C1c2ccccc2-c2nnc(-c3ccc([N+](=O)[O-])cc3)cc21 and N=c1c2ccccc2nc2oc3cc([N+](=O)[O-])ccc3n12 cannot be ordered by TGI: > 10 µM for the first, > 100 µM for the second.

First: Cn1c(-c2cccs2)cc(-c2cccs2)c1-c1cccs1
Second: CCOC(=O)CC[C@H](N)C(=O)N[C@@H](Cc1ccc(N(CCCl)CCCl)cc1)C(=O)OCC
The TGI of the first is higher: > 100 µM for the first, 2.48 µM for the second.

system: LOX IMVI melanoma; assay: growth of human tumour cells (NCI), 48 h

Compared with CCN(CCCl)c1cc(CN(C)C)cc(NC(=O)c2ccc(C(=O)Nc3cc(CN(C)C)cc(N(CC)CCCl)c3)cc2)c1, CCOC(=O)CC[C@H](N)C(=O)N[C@@H](Cc1ccc(N(CCCl)CCCl)cc1)C(=O)OCC is 4.1-fold higher in TGI: 0.712 µM for the first, 2.94 µM for the second.

Going from C=CCN1C(=O)/C(=C/c2ccc(Cl)cc2)N=C1SC/C=C/C to O=c1[nH]c2cccc([N+](=O)[O-])c2c(=O)n1-c1ccc(Cl)cc1, the TGI falls from > 100 µM to 59.5 µM.

Compared with CC12Nc3c(Cl)cc(Cl)cc3N1C(=O)c1ccccc12 (configuration not stated), O=C1C2=Cc3ccccc3CCN2c2ccccc21 is lower in TGI: > 100 µM for the first, 38.7 µM for the second.

CC(=O)OCC1OC(NC(=S)Nn2c(=O)[nH]c3ccccc3c2=O)C(OC(C)=O)C(OC(C)=O)C1OC(C)=O (configuration not stated) and CC[C@]12C=CCN3CC[C@@]4(c5cc(Br)c(OC)c([N+](=O)[O-])c5N(C)[C@H]4[C@@](O)(C(=O)OC)[C@@H]1OC(C)=O)[C@@H]32 cannot be ordered by TGI: > 100 µM for the first, > 100 µM for the second.

First: CN(CCC(=O)N1CC(CCl)c2ccc([N+](=O)[O-])cc21)CCC(=O)N1CC(CCl)c2ccc([N+](=O)[O-])cc21 (configuration not stated)
Second: N=c1c2ccccc2nc2oc3cc([N+](=O)[O-])ccc3n12
The TGI of the first is lower: 21.7 µM for the first, > 100 µM for the second.

C[C@]12CC[C@H]3[C@@H](CCC4=CC(=O)CC[C@@H]43)[C@@H]1CC[C@]2(O)C(N)=O and C1C2CC3CC1CC(c1nn4c(C56CC7CC(CC(C7)C5)C6)nnc4s1)(C2)C3 cannot be ordered by TGI: > 100 µM for the first, > 100 µM for the second.

C/C(Cl)=N/OC(=O)Nc1ccc(F)c([N+](=O)[O-])c1 and CC(C)OC(=O)c1ccc(NCC2=CC(=O)C=CC2=O)cc1 are within 1.5-fold of each other in TGI: 18.5 µM for the first, 26.2 µM for the second.

O=c1[nH]c(=O)n(C/C=C/CO)nc1Br and Cc1nc(N)c(N2CCN(S(N)(=O)=O)CC2)c(=O)[nH]1 cannot be ordered by TGI: > 100 µM for the first, > 100 µM for the second.

Compared with O=C1CC(Br)c2c(Br)sc(Br)c21 (configuration not stated), O=C1CSC(c2ccccc2)N1c1nc2cc3sc(N4C(=O)CSC4c4ccccc4)nc3cc2s1 (configuration not stated) is higher in TGI: 27.4 µM for the first, > 100 µM for the second.

COC(=O)C1C2OC(C)(C)OC2CN1S(=O)(=O)c1ccc(C)cc1 (configuration not stated) and CC(C)C[C@H]1[C@@H](OCc2ccccc2)COS(=O)(=O)N1[C@H](C)c1ccccc1 cannot be ordered by TGI: > 100 µM for the first, > 100 µM for the second.

COc1ccc(CNc2ccn(C3OC(CO)C(O)C3O)c(=O)n2)cc1 (configuration not stated) and O=C1c2ccccc2-c2nnc(-c3ccc([N+](=O)[O-])cc3)cc21 cannot be ordered by TGI: > 100 µM for the first, > 10 µM for the second.

Compared with Cn1c(-c2cccs2)cc(-c2cccs2)c1-c1cccs1, CCSc1nnc(Sc2c3ccccc3nc3ccccc23)s1 is lower in TGI: > 100 µM for the first, 23.7 µM for the second.

system: SF-268 CNS; assay: growth of human tumour cells (NCI), 48 h

Compared with CCN(CCCl)c1cc(CN(C)C)cc(NC(=O)c2ccc(C(=O)Nc3cc(CN(C)C)cc(N(CC)CCCl)c3)cc2)c1, CN(CCC(=O)N1CC(CCl)c2ccc([N+](=O)[O-])cc21)CCC(=O)N1CC(CCl)c2ccc([N+](=O)[O-])cc21 (configuration not stated) is 38-fold higher in TGI: 0.749 µM for the first, 28.5 µM for the second.

C=CCN1C(=O)/C(=C/c2ccc(Cl)cc2)N=C1SC/C=C/C and CC12Nc3c(Cl)cc(Cl)cc3N1C(=O)c1ccccc12 (configuration not stated) cannot be ordered by TGI: > 100 µM for the first, > 100 µM for the second.

O=C1C2=Cc3ccccc3CCN2c2ccccc21 and O=C1CSC(c2ccccc2)N1c1nc2cc3sc(N4C(=O)CSC4c4ccccc4)nc3cc2s1 (configuration not stated) cannot be ordered by TGI: > 74.2 µM for the first, > 100 µM for the second.

CC(=O)OCC1OC(NC(=S)Nn2c(=O)[nH]c3ccccc3c2=O)C(OC(C)=O)C(OC(C)=O)C1OC(C)=O (configuration not stated) and CC[C@]12C=CCN3CC[C@@]4(c5cc(Br)c(OC)c([N+](=O)[O-])c5N(C)[C@H]4[C@@](O)(C(=O)OC)[C@@H]1OC(C)=O)[C@@H]32 cannot be ordered by TGI: > 100 µM for the first, > 100 µM for the second.

C[C@]12CC[C@H]3[C@@H](CCC4=CC(=O)CC[C@@H]43)[C@@H]1CC[C@]2(O)C(N)=O and COC(=O)C1C2OC(C)(C)OC2CN1S(=O)(=O)c1ccc(C)cc1 (configuration not stated) cannot be ordered by TGI: > 100 µM for the first, > 100 µM for the second.

Going from C/C(Cl)=N/OC(=O)Nc1ccc(F)c([N+](=O)[O-])c1 to COc1ccc(CNc2ccn(C3OC(CO)C(O)C3O)c(=O)n2)cc1 (configuration not stated), the TGI rises from 32.8 µM to > 100 µM.

O=c1[nH]c(=O)n(C/C=C/CO)nc1Br and Cc1nc(N)c(N2CCN(S(N)(=O)=O)CC2)c(=O)[nH]1 cannot be ordered by TGI: > 100 µM for the first, > 100 µM for the second.

Compound O=C1CC(Br)c2c(Br)sc(Br)c21 (configuration not stated) has a TGI of 62.4 µM.
